The values that follow come from US20250034159A1, “INHIBITORS OF EPIDERMAL GROWTH FACTOR RECEPTOR” (ORIC Pharmaceuticals, Inc., priority 2021, published 2025).

The subject of one assay is BaF3_EGFR LR/CS cells. The experiment in a line: Biological Activity Assay D: BaF3 cell proliferation assay, EGFR L858R/C797S mutant (BaF3 LR/CS). Particulars: Ba/F3 EGFR, read-out: BaF3 LR/CS IC50. The class given is cell-based.
The next assay has as its system Ba/F3_EGFR WT cells. The experiment in a line: Biological Activity Assay D: BaF3 cell proliferation assay, EGFR wild-type (BaF3 WT). The class given is cell-based. Particulars: Ba/F3 EGFR, read-out: BaF3 WT IC50.
Assay [1] deals with recombinant human EGFR exon 19 deletion/C797S double mutant protein (Homo sapiens (Human), UniProt P00533, C797S/DEL746-750). The experiment in a line: Biological Activity Assay C: biochemical assay against EGFR exon 19 deletion/C797S protein (EGFR d19/CS). Put shortly:
(§1)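 IC50 values were fitted with a 4-parameter model to reaction slopes taken from 90 kinetic reads spaced 120 s apart. The Phosphosens sensor/ATP working solution was 40 uM/4 mM, and compound was dosed as 16-point dilutions at 2.5% final DMSO.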

For the next assay, the system named is BaF3_EGFR d19/CS cells. The experiment in a line: Biological Activity Assay D: BaF3 cell proliferation assay, EGFR exon 19 deletion/C797S (BaF3 d19/CS). The class given is cell-based. Particulars: Ba/F3 EGFR, read-out: BaF3 d19/CS IC50.
Assay [2] has as its target recombinant human EGFR L858R/C797S double mutant protein (Homo sapiens (Human), UniProt P00533, C797S/L858R). The assay is described as follows: Biological Activity Assay B: biochemical assay against EGFR L858R/C797S protein (EGFR LR/CS). In a few lines: as §1
[3] abbreviates: BaF3_EGFR LR/CS cells, ~72 hours, CellTiter-Glo.
Setting [4] is: Ba/F3_EGFR WT cells, ~72 hours, CellTiter-Glo.
Where [5] appears, read: BaF3_EGFR d19/CS cells, ~72 hours, CellTiter-Glo.

Like-named read-outs stand apart in the source and are kept apart here.

recombinant human EGFR L858R/C797S double mutant protein, sequence (P00533 25-1210 C797S/L858R): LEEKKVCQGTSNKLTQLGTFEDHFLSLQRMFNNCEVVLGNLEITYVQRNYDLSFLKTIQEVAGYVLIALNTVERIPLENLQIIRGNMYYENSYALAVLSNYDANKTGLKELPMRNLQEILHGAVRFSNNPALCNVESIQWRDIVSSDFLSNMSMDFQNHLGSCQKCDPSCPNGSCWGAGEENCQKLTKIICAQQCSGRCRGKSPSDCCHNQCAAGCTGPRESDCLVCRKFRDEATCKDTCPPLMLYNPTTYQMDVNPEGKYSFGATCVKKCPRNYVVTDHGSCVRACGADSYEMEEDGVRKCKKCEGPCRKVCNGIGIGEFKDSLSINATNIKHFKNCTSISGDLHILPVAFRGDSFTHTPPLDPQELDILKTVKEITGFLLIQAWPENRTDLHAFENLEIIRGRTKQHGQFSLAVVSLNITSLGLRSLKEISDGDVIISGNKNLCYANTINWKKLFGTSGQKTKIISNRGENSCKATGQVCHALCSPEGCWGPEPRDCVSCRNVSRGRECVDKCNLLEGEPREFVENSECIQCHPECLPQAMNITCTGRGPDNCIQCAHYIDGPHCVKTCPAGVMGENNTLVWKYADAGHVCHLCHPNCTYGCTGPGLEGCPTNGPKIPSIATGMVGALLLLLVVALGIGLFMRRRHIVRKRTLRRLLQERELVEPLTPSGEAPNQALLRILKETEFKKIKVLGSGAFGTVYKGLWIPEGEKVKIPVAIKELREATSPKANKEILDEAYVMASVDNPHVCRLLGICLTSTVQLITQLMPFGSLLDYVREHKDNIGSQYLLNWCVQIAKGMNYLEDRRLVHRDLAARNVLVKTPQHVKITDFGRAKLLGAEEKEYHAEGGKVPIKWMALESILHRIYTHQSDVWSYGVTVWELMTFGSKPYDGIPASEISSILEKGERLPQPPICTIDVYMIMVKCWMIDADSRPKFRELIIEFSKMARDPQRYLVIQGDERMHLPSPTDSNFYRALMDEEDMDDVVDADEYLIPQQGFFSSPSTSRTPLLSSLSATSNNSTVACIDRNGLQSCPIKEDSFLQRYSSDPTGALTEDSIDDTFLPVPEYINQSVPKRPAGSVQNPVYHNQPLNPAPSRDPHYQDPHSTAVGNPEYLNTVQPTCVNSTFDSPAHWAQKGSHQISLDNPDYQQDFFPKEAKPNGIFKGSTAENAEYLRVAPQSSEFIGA
recombinant human EGFR exon 19 deletion/C797S double mutant protein, sequence (P00533 other isoform, or with tags, fused parts or gaps C797S/del 1-668/del 746-750 limits assumed): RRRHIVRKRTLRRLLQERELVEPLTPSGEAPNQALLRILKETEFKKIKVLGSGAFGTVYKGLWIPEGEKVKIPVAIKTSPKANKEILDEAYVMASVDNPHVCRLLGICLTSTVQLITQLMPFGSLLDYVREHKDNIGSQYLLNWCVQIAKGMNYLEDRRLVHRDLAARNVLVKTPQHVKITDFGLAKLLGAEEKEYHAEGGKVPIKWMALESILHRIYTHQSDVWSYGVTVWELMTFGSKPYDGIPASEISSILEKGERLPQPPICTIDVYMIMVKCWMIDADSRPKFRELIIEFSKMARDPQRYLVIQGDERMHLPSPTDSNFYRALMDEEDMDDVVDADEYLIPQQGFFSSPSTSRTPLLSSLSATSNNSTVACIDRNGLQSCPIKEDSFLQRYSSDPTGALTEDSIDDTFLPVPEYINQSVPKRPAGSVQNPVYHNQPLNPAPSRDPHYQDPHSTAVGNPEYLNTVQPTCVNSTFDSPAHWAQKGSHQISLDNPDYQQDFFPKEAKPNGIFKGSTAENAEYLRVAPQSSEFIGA

With `Fc1ccc(-c2nn(CC3(F)COC3)cc2-c2ncnc3oc(-c4ccccc4)cc23)cc1` [Example 32, 4-{1-[(3-fluorooxetan-3-yl)methyl]-3-(4-fluorophenyl)-1H-pyrazol-4-yl}-6-phenylfuro[2,3-d]pyrimidine], the IC50 with BaF3_EGFR LR/CS cells (setting [3]) amounted to 130 nM; in the assay with Ba/F3_EGFR WT cells (setting [4]) it was 4730 nM; in assay [1] it was 1.26 nM; in the assay with BaF3_EGFR d19/CS cells (setting [5]) it was 114 nM; in assay [2], 1.36 nM.

As for `CN1CCN(c2ccc(-c3cc4c(-c5cn(CCCO)nc5-c5ccc(F)cc5)ncnc4o3)cc2)CC1` [Example 33, 3-[3-(4-Fluorophenyl)-4-{6-[4-(4-methylpiperazin-1-yl)phenyl]furo[2,3-d]pyrimidin-4-yl}-1H-pyrazol-1-yl]propan-1-ol], the IC50 is 1.16 nM with BaF3_EGFR LR/CS cells (setting [3]); 38 nM in the assay with Ba/F3_EGFR WT cells (setting [4]); 0.119 nM in assay [1]; 1.08 nM in the assay with BaF3_EGFR d19/CS cells (setting [5]); 0.212 nM in assay [2].

Regarding `CC(C)(O)CCn1cc(-c2ncnc3oc(-c4ccccc4)cc23)c(-c2ccc(F)cc2)n1` [Example 34, 4-[3-(4-fluorophenyl)-4-(6-phenylfuro[2,3-d]pyrimidin-4-yl)-1H-pyrazol-1-yl]-2-methylbutan-2-ol], the IC50 with BaF3_EGFR LR/CS cells (setting [3]) was 225 nM; in the assay with Ba/F3_EGFR WT cells (setting [4]) it was 7780 nM; in assay [1] it was 1.59 nM; in the assay on BaF3_EGFR d19/CS cells (setting [5]) it was 122 nM; in assay [2], 1.17 nM.

`OCCCc1nc(-c2ccc(F)cc2)c(-c2ncnc3oc(-c4ccccc4)cc23)o1` [Example 35, 3-[4-(4-Fluorophenyl)-5-(6-phenylfuro[2,3-d]pyrimidin-4-yl)-1,3-oxazol-2-yl]propan-1-ol]: the IC50 is 134 nM in the assay with BaF3_EGFR LR/CS cells (72 h); 5950 nM with Ba/F3_EGFR WT cells (72 h); 0.54 nM in assay [1]; 185 nM with BaF3_EGFR d19/CS cells (72 h); 0.958 nM in assay [2].

For `CNC(=O)CCc1nc(-c2ccc(F)cc2)c(-c2ncnc3oc(-c4ccccc4)cc23)o1` [Example 36, 3-[4-(4-fluorophenyl)-5-(6-phenylfuro[2,3-d]pyrimidin-4-yl)-1,3-oxazol-2-yl]-N-methylpropanamide], the IC50 in the assay on BaF3_EGFR LR/CS cells (setting [3]) came to 209 nM; in the assay with Ba/F3_EGFR WT cells (setting [4]), 20000 nM; in assay [1], 1.35 nM; with BaF3_EGFR d19/CS cells (setting [5]) it was 339 nM; in assay [2], 1.13 nM.

For `CN(C)C(=O)CCc1nc(-c2ccc(F)cc2)c(-c2ncnc3oc(-c4ccccc4)cc23)o1` [Example 37, 3-[4-(4-fluorophenyl)-5-(6-phenylfuro[2,3-d]pyrimidin-4-yl)-1,3-oxazol-2-yl]-N,N-dimethylpropanamide], the IC50 came to 318 nM in the assay on BaF3_EGFR LR/CS cells (setting [3]); 6280 nM in the assay with Ba/F3_EGFR WT cells (setting [4]); 2.6 nM in assay [1]; 514 nM in the assay with BaF3_EGFR d19/CS cells (setting [5]); 1.87 nM in assay [2].

`CS(=O)(=O)CCn1cc(-c2ncnc3oc(-c4ccccc4)cc23)c(-c2ccc(F)cc2)n1` [Example 38, 4-{3-(4-Fluorophenyl)-1-[2-(methanesulfonyl)ethyl]-1H-pyrazol-4-yl}-6-phenylfuro[2,3-d]pyrimidine]: the IC50 was 121 nM with BaF3_EGFR LR/CS cells (setting [3]); 2170 nM with Ba/F3_EGFR WT cells (setting [4]); 0.856 nM in assay [1]; 44.8 nM in the assay with BaF3_EGFR d19/CS cells (setting [5]); 0.434 nM in assay [2].

Regarding `CS(=O)(=O)n1cc(-c2ncnc3oc(-c4ccccc4)cc23)c(-c2ccc(F)cc2)n1` [Example 39, 4-[3-(4-fluorophenyl)-1-(methanesulfonyl)-1H-pyrazol-4-yl]-6-phenylfuro[2,3-d]pyrimidine], the IC50 with BaF3_EGFR LR/CS cells (setting [3]) came out at 161 nM; with Ba/F3_EGFR WT cells (setting [4]) it was 1920 nM; in assay [1], 5.19 nM; with BaF3_EGFR d19/CS cells (setting [5]) it was 147 nM; in assay [2] it was 6.14 nM.

Take `O=S1(=O)CC(n2cc(-c3ncnc4oc(-c5ccccc5)cc34)c(-c3ccc(F)cc3)n2)C1` [Example 40, 3-[3-(4-Fluorophenyl)-4-(6-phenylfuro[2,3-d]pyrimidin-4-yl)-1H-pyrazol-1-yl]-1λ6-thietane-1,1-dione]: the IC50 amounted to 36.4 nM in the assay on BaF3_EGFR LR/CS cells (setting [3]); 2100 nM with Ba/F3_EGFR WT cells (setting [4]); 0.192 nM in assay [1]; 22 nM in the assay with BaF3_EGFR d19/CS cells (setting [5]); 0.327 nM in assay [2].
